This passage reports IC50 results from patent US20240317721A1, “PYRAZOLYL DERIVATIVES AS INHIBITORS OF THE KRAS MUTANT PROTEIN” (NOVARTIS AG, priority 2021, published 2024).

Some results are limits rather than exact numbers.

The IC50 is the concentration at which inhibition is half-maximal.

This assay concerns the target KRasG12C (M1-K169, biotinylated on the N-terminus) (Homo sapiens (Human), UniProt P01116, G12C). Kind of assay: Covalent competition assay: scintillation proximity assay (SPA) quantifying covalent modification of KRASG12C. It is filed as binding. As to conditions: competition with radiolabeled covalent probe (Compound B/Compound A), 2 hours incubation, 10 nM KRasG12C. The method in brief: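 Test compounds compete with a radiolabeled covalent probe for modification of N-terminally biotinylated KRasG12C(M1-K169):GDP, final 10 nM protein, 25 nM radio-ligand, 475 nM unlabelled ligand, 2 h with agitation in 20 mM Tris-HCl pH 7.5, 150 mM NaCl, 0.1 mM MgCl2, 0.01% Tween-20.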
(In general: SPA uses beads or plates that emit light when radiolabelled molecules are held near them.)
For the molecule `[2H]C1([2H])OC([2H])([2H])C([2H])([2H])N(C[C@@H]2CCN(c3nn(C4CC5(C4)CN(C(=O)C=C)C5)c(C)c3-c3c(Cl)c(Cl)cc4[nH]ncc34)C(C)(C)C2)C1([2H])[2H]` (single isomer, unassigned) [Example 283a], the IC50 was 3000 nM.

Regarding `C=CC(=O)N1CC2(CC(n3nc(N4CCN(CC(C)(C)O)CC45CCC5)c(-c4c(Cl)c(C)cc5[nH]ncc45)c3C)C2)C1` (single isomer, unassigned) [Example 160b, 1-(6-(4-(5-Chloro-6-methyl-1H-indazol-4-yl)-3-(8-(2-hydroxy-2-methylpropyl)-5,8-diazaspiro[3.5]nonan-5-yl)-5-methyl-1H-pyrazol-1-yl)-2-azaspiro[3.3]heptan-2-yl)prop-2-en-1-one], the IC50 is 27 nM.

On to `C=CC(=O)N1CC2(CC(n3nc(N4CCN(C(C)(C)CO)CC45CCC5)c(-c4c(Cl)c(C)cc5[nH]ncc45)c3C)C2)C1` (single isomer, unassigned) [Example 190a, 1-(6-(4-(5-Chloro-6-methyl-1H-indazol-4-yl)-3-(8-(1-hydroxy-2-methylpropan-2-yl)-5,8-diazaspiro[3.5]nonan-5-yl)-5-methyl-1H-pyrazol-1-yl)-2-azaspiro[3.3]heptan-2-yl)prop-2-en-1-one], for which the IC50 came to 4500 nM.

Consider `Cc1cc2[nH]ncc2c(-c2c(N3CCN(C4COC4)CC34CCC4)nn(C3CC4(C3)CN(C(=O)[C@@H]3CO3)C4)c2C)c1Cl` [Example 139, (S)-(6-(4-(5-chloro-6-methyl-1H-indazol-4-yl)-5-methyl-3-(8-(oxetan-3-yl)-5,8-diazaspiro[3.5]nonan-5-yl)-1H-pyrazol-1-yl)-2-azaspiro[3.3]heptan-2-yl)(oxiran-2-yl)methanone], for which the IC50 amounted to 450 nM.

Take `C=CC(=O)N1CC2(CC(n3nc(N4CCC5C(CC(=O)N5C)C4)c(-c4c(Cl)c(C)cc5[nH]ncc45)c3C)C2)C1` (single isomer, unassigned) [Example 39b, 5-(1-(2-acryloyl-2-azaspiro[3.3]heptan-6-yl)-4-(5-chloro-6-methyl-1H-indazol-4-yl)-5-methyl-1H-pyrazol-3-yl)-1-methyloctahydro-2H-pyrrolo[3,2-c]pyridin-2-one]: the IC50 was determined as 75 nM.

On to `C=CC(=O)N1CC2(CC(n3nc(N4CCN(CC(C)(C)O)C[C@]4(C)CC)c(-c4c(Cl)c(C)cc5[nH]ncc45)c3C)C2)C1` (single isomer, unassigned) [Example 161b], for which the IC50 is 8 nM.

Turning to `C=CC(=O)N1CC2(CC(n3nc(N4CC[C@@H](CN5CCN(C6COC6)CC5)CC4(C)C)c(-c4c(Cl)c(Cl)cc5[nH]ncc45)c3C)C2)C1` (single isomer, unassigned) [Example 243b], the IC50 is 6 nM.

For the molecule `C=CC(=O)N1CC2(CC(n3nc(N4CC[C@@H](CN5CCOC[C@@H](O)C5)CC4(C)C)c(-c4c(Cl)c(Cl)cc5[nH]ncc45)c3C)C2)C1` (single isomer, unassigned) [Example 292b], the IC50 was 27 nM.

Regarding `C=CC(=O)N1CC2(CC(n3nc(N4CCN(C(C)=O)C[C@@H]4C(C)C)c(-c4c(Cl)c(C)cc5[nH]ncc45)c3C)C2)C1` (single isomer, unassigned) [Example 95b], the IC50 was 373 nM.

For the molecule `C=CC(=O)N1CC2(CC(n3nc(N4CC[C@@H](CN5CCC6COCC65)CC4(C)C)c(-c4c(C)c(Cl)cc5[nH]ncc45)c3C)C2)C1` (single isomer, unassigned) [Example 306b, 1-(6-(4-(6-chloro-5-methyl-1H-indazol-4-yl)-3-((R)-4-(((3aR*,6aR*)-hexahydro-1H-furo[3,4-b]pyrrol-1-yl)methyl)-2,2-dimethylpiperidin-1-yl)-5-methyl-1H-pyrazol-1-yl)-2-azaspiro[3.3]heptan-2-yl)prop-2-en-1-one], the IC50 came to 5 nM.

As for `C=CC(=O)N1CC2(CC(n3nc(N4CCc5cnn(C)c5C4)c(-c4c(Cl)c(C)cc5[nH]ncc45)c3C)C2)C1` (single isomer, unassigned) [Example 14a, 1-(6-(4-(5-chloro-6-methyl-1H-indazol-4-yl)-5-methyl-3-(1-methyl-1,4,5,7-tetrahydro-6H-pyrazolo[3,4-c]pyridin-6-yl)-1H-pyrazol-1-yl)-2-azaspiro[3.3]heptan-2-yl)prop-2-en-1-one], the IC50 is above 50000 nM.

With `C=CC(=O)N1CC2(CC(n3nc(N4CC[C@@H](CN5CC6COCC(C5)O6)CC4(C)C)c(-c4c(Cl)c(Cl)cc5[nH]ncc45)c3C)C2)C1` (single isomer, unassigned) [Example 308b], the IC50 was determined as 10 nM.

Regarding `C=CC(=O)N1CC2(CC(n3nc(N4CCN(C(C)=O)CC4)c(-c4c(C)c(C)cc5[nH]ncc45)c3C)C2)C1` (single isomer, unassigned) [Example 2b, 1-(6-(3-(4-acetylpiperazin-1-yl)-4-(5,6-dimethyl-1H-indazol-4-yl)-5-methyl-1H-pyrazol-1-yl)-2-azaspiro[3.3]heptan-2-yl)prop-2-en-1-one], the IC50 was found to be 3200 nM.

For `C=CC(=O)N1CC2(CC(n3nc(N4CCN(CCO)CC4(C)C)c(-c4c(Cl)c(C)cc5[nH]ncc45)c3C)C2)C1` (single isomer, unassigned) [Example 163b, 1-(6-(4-(5-chloro-6-methyl-1H-indazol-4-yl)-3-(4-(2-hydroxyethyl)-2,2-dimethylpiperazin-1-yl)-5-methyl-1H-pyrazol-1-yl)-2-azaspiro[3.3]heptan-2-yl)prop-2-en-1-one], the IC50 turned out to be 114 nM.

In the case of `C=CC(=O)N1CC2(CC(n3nc(N4CCC(C(=O)N(C)C)CC4(C)C)c(-c4c(Cl)c(C)cc5[nH]ncc45)c3C)C2)C1` (stereo not shown) [Example 99b, 1-(1-(2-acryloyl-2-azaspiro[3.3]heptan-6-yl)-4-(5-chloro-6-methyl-1H-indazol-4-yl)-5-methyl-1H-pyrazol-3-yl)-N,N,2,2-tetramethylpiperidine-4-carboxamide], the IC50 is above 5000 nM.

On to `C=CC(=O)N1CC2(CC(n3nc(N4CCC5(CN(C)CCO5)CC4(C)C)c(-c4c(Cl)c(C)cc5[nH]ncc45)c3C)C2)C1` (single isomer, unassigned) [Example 208b, 1-(6-(4-(5-chloro-6-methyl-1H-indazol-4-yl)-5-methyl-3-(4,8,8-trimethyl-1-oxa-4,9-diazaspiro[5.5]undecan-9-yl)-1H-pyrazol-1-yl)-2-azaspiro[3.3]heptan-2-yl)prop-2-en-1-one], for which the IC50 came to 3800 nM.

On to `C=CC(=O)N1CC2(CC(n3nc(N4CCN(S(C)(=O)=O)CC4(C)C)c(-c4c(Cl)c(C)cc5[nH]ncc45)c3C)C2)C1` (single isomer, unassigned) [Example 126a, 1-(6-(4-(5-chloro-6-methyl-1H-indazol-4-yl)-3-(2,2-dimethyl-4-(methylsulfonyl)piperazin-1-yl)-5-methyl-1H-pyrazol-1-yl)-2-azaspiro[3.3]heptan-2-yl)prop-2-en-1-one], for which the IC50 is above 50000 nM.

As for `C=CC(=O)N1CC2(CC(n3nc(N4CC[C@@H](CN5CC6OCCN(C)C6C5)CC4(C)C)c(-c4c(Cl)c(Cl)cc5[nH]ncc45)c3C)C2)C1` (single isomer, unassigned) [Example 260b, 1-(6-(4-(5,6-dichloro-1H-indazol-4-yl)-3-((R)-2,2-dimethyl-4-(((4aR*,7aS*)-4-methylhexahydropyrrolo[3,4-b][1,4]oxazin-6(2H)-yl)methyl)piperidin-1-yl)-5-methyl-1H-pyrazol-1-yl)-2-azaspiro[3.3]heptan-2-yl)prop-2-en-1-one], the IC50 is 9 nM.

Take `C=CC(=O)N1CC2(CC(n3nc(N4CC[C@@H](CN5CCN(S(C)(=O)=O)CC5)CC4(C)C)c(-c4c(Cl)c(Cl)cc5[nH]ncc45)c3C)C2)C1` (single isomer, unassigned) [Example 298b]: the IC50 came out at 27 nM.

In the case of `C=CC(=O)N1CC2(CC(n3nc(N4CCN(c5cnn(C)c5)CC4(C)C)c(-c4c(Cl)c(C)cc5[nH]ncc45)c3C)C2)C1` (single isomer, unassigned) [Example 193b, 1-(6-(4-(5-Chloro-6-methyl-1H-indazol-4-yl)-3-(2,2-dimethyl-4-(1-methyl-1H-pyrazol-4-yl)piperazin-1-yl)-5-methyl-1H-pyrazol-1-yl)-2-azaspiro[3.3]heptan-2-yl)prop-2-en-1-one], the IC50 was 28 nM.

For the molecule `C=CC(=O)N1CC2(CC(n3nc(N4C5CCC4CN(C(C)=O)C5)c(-c4c(Cl)c(C)cc5[nH]ncc45)c3C)C2)C1` (single isomer, unassigned) [Example 57a, 1-(6-(3-(3-acetyl-3,8-diazabicyclo[3.2.1]octan-8-yl)-4-(5-chloro-6-methyl-1H-indazol-4-yl)-5-methyl-1H-pyrazol-1-yl)-2-azaspiro[3.3]heptan-2-yl)prop-2-en-1-one], the IC50 was 34700 nM.

Regarding `C=CC(=O)N1CC2(CC(n3nc(N4CCC(n5ccnc5)CC4(C)C)c(-c4c(Cl)c(C)cc5[nH]ncc45)c3C)C2)C1` (single isomer, unassigned) [Example 45b, 1-(6-(3-(4-(1H-imidazol-1-yl)-2,2-dimethylpiperidin-1-yl)-4-(5-chloro-6-methyl-1H-indazol-4-yl)-5-methyl-1H-pyrazol-1-yl)-2-azaspiro[3.3]heptan-2-yl)prop-2-en-1-one], the IC50 turned out to be 1500 nM.

In the case of `C=CC(=O)N1CC2(CC(n3nc(N4CCN(C5CCOCC5)C[C@@]4(CC)C(F)F)c(-c4c(Cl)c(C)cc5[nH]ncc45)c3C)C2)C1` (single isomer, unassigned) [Example 156b], the IC50 was found to be 8 nM.

Consider `C=CC(=O)N1CC2(CC(n3nc(N4CC[C@@H](CN5C[C@@H]6C[C@H]5CS6(=O)=O)CC4(C)C)c(-c4c(Cl)c(Cl)cc5[nH]ncc45)c3C)C2)C1` (single isomer, unassigned) [Example 249b], for which the IC50 amounted to 13 nM.

Take `C=CC(=O)N1CC2(CC(n3nc(N4CCn5ccnc5C4)c(-c4c(Cl)c(C)cc5[nH]ncc45)c3C)C2)C1` (single isomer, unassigned) [Example 19a, 1-(6-(4-(5-chloro-6-methyl-1H-indazol-4-yl)-3-(5,6-dihydroimidazo[1,2-a]pyrazin-7(8H)-yl)-5-methyl-1H-pyrazol-1-yl)-2-azaspiro[3.3]heptan-2-yl)prop-2-en-1-one]: the IC50 was 894 nM.
